From patent US20130210852A1, “METHODS FOR TREATING INFECTION” (priority 2010, published 2013)
In brackets after ≈: the same amount, converted by molar mass. Entries after “also recorded” stand apart in the source; their conditions may differ. Like-named read-outs stand apart in the source and are kept apart here.

Columns and labels:
[1] = test system: EAEC strain O42 adherence to A549 cells; assay type: cell-based, human; settings: 24 h pretreatment with 64 mg (FIG. 2: 64 μg/ml), EAEC 3 h
[2] = test system: B. anthracis Sterne strain 7702 spores on A549 cells; assay type: cell-based, human; settings: A549 cells pretreated 24 h, spores 1 h
[3] = test system: EAEC adherence with dialyzed conditioned medium of HEp-2 cells; assay: Effect of dialyzed HEp-2 supernatants on EAEC adherence; assay type: cell-based, human; parameters: dose or concentration left out as unconfirmed; settings: HEp-2 treated 24 h, supernatant dialyzed; chambers with or without HEp-2 cells, 3 h
Experimental: HEp-2 cells were cultured in T-175 flasks as described above. […] After 24 h, the medium was collected, loaded into regenerated cellulose dialysis tubing (cutoff, 6 to 8 kDa; Spectra/Por, Rancho Domiguez, Calif.), and dialyzed against 4 liters of PBS changed four times. Each dialysis step lasted at least 6 h and was carried out at 4° C. Dialyzed supernatants were either used immediately in adherence assays or stored at −20° C. until use.
The effect of supernatants on EAEC adherence was determined by mixing EAEC with the dialyzed media from the different antibiotic (or control) treatment groups and adding the bacteria to HEp-2 cells cultured in chambered slides or to chambered slides with no HEp-2 cells. Adherence was visualized microscopically as described above.

[4] = test system: enterotoxigenic E coli strains; assay: MIC against rifaximin by agar dilution, ETEC isolates; assay type: cell-based; settings: Escherichia coli
Experimental: (§1) Five enterotoxigenic E coli strains, 2 enteroaggregative E coli strains, and 1 S sonnei isolate were included in the study. The isolates had been identified previously from patients with TD acquired in Guadalajara, Mexico, during the summer of 2004 (5). […] The susceptibility of all isolates to rifaximin was determined by agar dilution methodology following the recommendations of the Clinical and Laboratory Standards Institute.

[5] = test system: enteroaggregative E coli strains; assay: MIC against rifaximin by agar dilution, EAEC isolates; assay type: cell-based; settings: Escherichia coli; 2 EAEC isolates
Experimental: as §1

S sonnei isolate = assay: MIC against rifaximin by agar dilution, S sonnei isolate; assay type: cell-based; settings: Shigella sonnei
Experimental: as §1

[6] = test system: MMP-9 in S sonnei isolate; assay: Matrix metalloproteinase-9 detection by gelatin zymography, S sonnei; assay type: cell-based, Shigella sonnei
Experimental: Matrix Metalloproteinase-9 Detection Expression of matrix metalloproteinase-9 (MMP-9) was analyzed using gelatin zymography in all viable EAEC and S. sonnei isolates growing on MacConkey agar. Isolates were suspended in 1 mL of 0.1 M phosphate buffered saline (pH 7.2) and centrifuged at 1000 g for 10 minutes at 4° C. The supernatant was subjected to gelatin zymography to detect MMP-9 activity using a modified Heussen and Dowdle protocol (9). In summary, the supernatant was diluted 1:2 in a sample buffer (125 mM Tris-HCl, pH 6.8, 20% glycerol, 4% sodium dodecyl sulfate, 0.02% bromphenol blue), and 20 μL was loaded on to a 10% SDS-PAGE gel containing 1 mg/mL gelatin. Prestained standard proteins were used as molecular weight markers. After electrophoresis, gels were rinsed with incubation buffer (2.5% triton X-100, 50 mM Tris-HCl, pH 7.4, 0.02% Brij 35, 10 mM CaCl2, 2 μM ZnCl2) for 1 hour at room temperature to remove SDS. Gels were then incubated overnight at 37° C. and subsequently stained with Coomassie brilliant blue R-250 (Thermo Fisher Scientific, Inc, Rockford, Ill.). […] Matrix metalloproteinase-9 was identified among all gelatinolytic proteins by size.

C difficile [7] = settings: cited from earlier work
C difficile [8] = settings: cited from earlier work; remark: listed apart in the source
EAEC = settings: previously established in the applicant's laboratory; cited from earlier work
HEp-2 cells = assay: Cytokine arrays of HEp-2 supernatants (Panomics); settings: antibiotic 64 μg/ml, 24 h
ETEC strains = assay: Isolate viability after rifaximin exposure, ETEC
[9] = 201 isolates, Canada, 1992 to 2007

With `CO[C@H]1/C=C/O[C@@]2(C)Oc3c(C)c(O)c4c(O)c(c5c(nc6cc(C)ccn65)c4c3C2=O)NC(=O)/C(C)=C\C=C\[C@H](C)[C@H](O)[C@@H](C)[C@@H](O)[C@@H](C)[C@H](OC(C)=O)[C@@H]1C` [Rifaximin, (2S,16Z,18E,20S,21S,22R,23R,24R,25S,26S,27S,28E)-5,6,21,23,25 Pentahydroxy-27-methoxy-2,4,11,16,20,22,24,26-octamethyl-2,7-(epoxypentadeca-(1,11,13)trienimino)benzofuro (4,5-e) pyrido(1,2,-a) benzimidazole-1,15(2H)-dione,25-acetate] the “EAEC adherence to A549 cells” value [1] was “significantly reduced”, the “adherence of B. anthracis” value [2] was “significant reductions” and the “internalization of B. anthracis” value ([2]; then gentamicin 100 μg/ml 1 h) was “significant reductions”. The “EAEC adherence after mixing with dialyzed supernatants of antibiotic-treated HEp-2 cells” value [3] was “adhered poorly”, the MIC ([4]; read-out: MIC, ETEC, 2 ETEC isolates) was 128 µg/mL (≈ 163 µM) and the MIC ([4]; read-out: MIC, all ETEC and EAEC isolates, 5 ETEC and 2 EAEC isolates) was 64 to 128 µg/mL (≈ 81.4 to 163 µM). For the same molecule, the MIC [5] was 64 µg/mL (≈ 81.4 µM), the MIC (S sonnei isolate) was 16 µg/mL (≈ 20.4 µM) and the “MMP-9 in the S sonnei isolate” value ([6]; other time points and rifaximin concentrations) was “either undetectable or the isolate was not viable”. The “MMP-9 in the S sonnei isolate” value ([6]; rifaximin 8 mg/L for 4 hours) was “detectable”, the “isolates resistant to rifaximin, based on MIC values” (C difficile [7]; 110 C difficile isolates) was 2.7% and the “MIC50 against C difficile” value (C difficile [7]; 110 isolates, 1983 to 2004) was 0.0075 µg/mL (≈ 0.00954 µM). The “MIC90 against C difficile” value (C difficile [7]; 110 isolates, 1983 to 2004) was 0.015 µg/mL (≈ 0.0191 µM), the “isolates with MIC values >2 μg/mL” value (C difficile [8]; 201 C difficile isolates) was 4% and the “MIC50 against C difficile” value (C difficile [8]; [9]) was 0.008 µg/mL (≈ 0.0102 µM). The “MIC90 against C difficile” value (C difficile [8]; [9]) was 0.015 µg/mL (≈ 0.0191 µM), the “MIC50 for EAEC” value (EAEC) was 64 µg/mL and the “cytokine profile of HEp-2 supernatants” value (HEp-2 cells) was “contained detectable levels of RANTES and IL-4 only; also recorded: reduced the expression of various proinflammatory cytokines”. For the same molecule, the “ETEC viability after exposure” value (ETEC strains; rifaximin 8 mg/L, 24-hour exposure) was “viable”, the “ETEC viability after exposure” value (ETEC strains; rifaximin 64 mg/L for 18 hours or 32 and 64 mg/L for 24 hours) was “No ETEC isolates were viable” and the “ETEC viability after exposure” value (ETEC strains; rifaximin 8, 32, and 64 mg/L for 4 and 8 hours, 8 and 32 mg/L for 18 hours) was “viable”.
